From ChEMBL document CHEMBL1142482, “Synthesis of novel benzamidine- and guanidine-derived polyazamacrocycles: Selective anti-protozoal activity for human African trypanosomiasis” (Bioorg Med Chem Lett, 2008)

Tests used:
Trypanosoma brucei = assay: Antitrypanosomal activity against bloodstream Trypanosoma brucei P2 by Alamar blue assay; assay type: functional, organism-based
Plasmodium falciparum = assay: Antiplasmodial activity against Plasmodium falciparum; assay type: functional, organism-based
[1] = Cytotoxicity against HEK cells; assay type: cell-based; conditions: Homo sapiens, HEK293
[2] = Lipophilicity, log P of the compound; assay type: physicochemical; conditions: octanol/water

Structure (SMILES)	EC50 (Trypanosoma brucei) [µM]	EC50 (Plasmodium falciparum) [µM]	logP [2]	EC50 [1] [µM]
NCc1ccc(C2CNCCNCCNCCN2)cc1 (stereo unspecified)	> 200	> 100	-1.12	> 200
N=C(N)NCc1ccc(C2CNCCNCCNCCN2)cc1 (stereo unspecified)	41.2	> 100	-1.64	> 200
N=C(N)c1ccc(C2CNCCNCCNCCN2)cc1 (stereo unspecified)	22	> 100	-1.44	> 200
N#Cc1ccc(C2CNCCNCCNCCN2)cc1 (stereo unspecified)	> 200	> 100	-0.65	> 200

Now those with a lower EC50 (Trypanosoma brucei), led by results:

EC50 (Trypanosoma brucei) [µM]	EC50 (Plasmodium falciparum) [µM]	logP [2]	Structure (SMILES)	EC50 [1] [µM]
1.3	< 1.5	–	c1ccc2c(c1)ccc1ccc(C3CNCCNCCNCCN3)cc12 (stereo unspecified)	24.9
0.5	–	–	O=C(Nc1ccc([N+](=O)[O-])cc1)OCCN1CCN(CCOC(=O)Nc2ccc([N+](=O)[O-])cc2)CCN(CCOC(=O)Nc2ccc([N+](=O)[O-])cc2)CCN(CCOC(=O)Nc2ccc([N+](=O)[O-])cc2)CC1	1.3
